Columns and labels:
[1] = test system: viral p24 antigen, ACH-2 cells; test: p24 antigen levels (ELISA) in PMA-induced ACH-2 cells; assay type: cell-based, HIV-1; conditions: 200 μM, PMA-induced ACH-2, FIG. 10
Description: 142, 431-438 (1989), which is hereby incorporated by reference]. However, vigorous HIV-1 production by ACH-2 cells is induced by addition of the phorbol ester PMA [Pomerantz et al., Cell 61, 1271-1276 (1990) and Michael et al., J. Virol 65, 1291-1303 (1991), which are hereby incorporated by reference]. This system was selected for these experiments. Logarithmically growing ACH-2 cells, suspended at a concentration of 3×10^5 /ml, were incubated with the hypusine inhibitors mimosine and HK-1 at a final concentration of 200 μM. After 8 hours, viral replication was activated by addition of PMA to these cells and to untreated controls (100 ng/ml final PMA concentration). […] An aliquot of each fraction was analyzed by slot blotting, using the pXC-1 genomic ribosomal DNA probe from rat containing the 18S rRNA coding sequence [Rimarachin, Szabo et al., In Vitro 28A, 705-707 (1992), which is hereby incorporated by reference], to determine the location within the gradient of 18S rRNA, i.e., the distribution of polysomes vs. monosomes. […] Following electrophoresis, the radio-labeled PCR products were visualized by autoradiography according to routine techniques, and the band intensities quantified by densitometric analysis and expressed relative to total product per gradient. […]

cellular protein TNF-α = test: TNF-α biosynthesis and secretion (ELISA) in PMA-induced ACH-2 cells; assay type: cell-based, human; conditions: 200 μM, PMA-induced ACH-2, FIG. 10
HIV-1 RNA = test: Splicing analysis (Northern blot) of HIV-1 RNA in PMA-induced ACH-2 cells; assay type: cell-based; conditions: 200 μM, FIG. 7
Source text: At about 9-kb is the position of unspliced viral MRNA species representing the infectious viral genome and encoding key structural proteins for core and capsid. At about 4-kb is the position of incompletely spliced viral MRNA species encoding structural and regulatory proteins. At about 2-kb is the position of completely spliced viral MRNA species encoding regulatory proteins, such as Rev. […] Lane B is for the high level expression of HIV-1 RNA after induction with PMA; note the presence of the 9-kb species.
ACH-2 cells were incubated with hypusine inhibitors (mimosine, HK-1) and induced with PMA as outlined in Example II A. From control cells, from cells induced with PMA, and from PMA-induced cells treated with 200 μM mimosine/HK-1, in each case aliqouts of 1.2×10^7 cells, the total cellular RNA was isolated by the guanidinium isothiocyanate-cesium chloride method [Chirgwin et al., Biochemistrv 18, 5294-5299 (1979), which is hereby incorporated by reference]. Equal quantities of RNA from each cell sample were electrophoresed on a 1% agarose-formaldehyde gel, transferred to nitrocellulose, and hybridized with randomly primed, ^32 P-dCTP-labeled genomic HIV-1 probe pBH10 [Ratner et al., Nature 313, 277-284 (1985), which is hereby incorporated by reference]. Following hybridization, the blots were washed extensively, dried, and autoradiographed. […]

Row | SMILES | viral p24 antigen in cells and supernatant [1] | TNF-α biosynthesis and secretion (cellular protein TNF-α) | HIV-1 RNA splicing pattern (HIV-1 RNA)
1 | Cc1c(O)c(=O)ccn1C [HK-1, 1,2-dimethyl-3-hydroxypyrid-4-one] | suppressive effect | absence of such a suppressive effect | apparent lack of 9-kb and 4-kb species
2 | N[C@@H](Cn1ccc(=O)c(O)c1)C(=O)O [L-Mimosine] | suppressive effect | absence of such a suppressive effect | apparent lack of the 9-kb species

Source: patent US5849587A, “Method of inhibiting viral replication in eukaryotic cells and of inducing apoptosis of virally-infected cells” (Cornell Research Foundation, Inc., priority 1995, dated 1998)
